Like-named read-outs stand apart in the source and are kept apart here. Where a SMILES comes first, the peptide text is derived from it. Bridges are numbered along the chain shown (N, C = ends). [ ]: non-standard residue; d: D form. The star is where a group is joined. Stearoyl = CCCCCCCCCCCCCCCCCC(=O)*; Tic = O=C(O)[C@@H]1Cc2ccccc2CN1; dTic = O=C(O)[C@H]1Cc2ccccc2CN1; Dab = NCC[C@H](N)C(=O)O; Dmp = di-methyl proline
Experiments:
[1] = tested on: WI38 (non-transformed fibroblasts) cells, wtp53; assay type: cell-based
Method: (§1) Cells were cultured in 96 wells plates with 2500-4000 cells/well. Serial dilutions of different peptides were added and the plates incubated for additional 48 h at 37° C. Then medium was removed and cell viability was determined by staining the cells with crystal violet (0.05%) in methanol/PBS (1:5, v/v), for 10 min, followed by 3 washes with PBS. 10% acetic acid was added to each well for 10 min. OD was determined at 595 nm.
(§2) The IC50 tables presented in FIGS. 17-20 are from several representative experiments performed on cell lines expressing several p53 hotspot mutations, as well as control non-transformed cells: […]

[2] = tested on: MIA PaCa-2 (pancreatic carcinoma) cells, p53R248W; assay type: cell-based
Method: as §1, §2

[3] = tested on: PANC1 (pancreatic carcinoma) cells, p53R273H; assay type: cell-based
Method: as §1, §2

[4] = tested on: SW-480 (colon carcinoma) cells, p53R273H, P309S; assay type: cell-based
Method: as §1, §2

[5] = tested on: panel of cell lines expressing mutp53; assay type: cell-based; conditions: for IC50: 48 h
Method: as §1
(§3) The IC50 tables presented in FIGS. 17-20 are from several representative experiments performed on cell lines expressing several p53 hotspot mutations, as well as control non-transformed cells:
Proline residue position—Based on alanine scanning and molecular dynamics analyses, it is believed that the proline residue at the 6th position from the N-terminal is critical for the peptide's 3D structure and provides some rigidity required for peptide binding and activity. Therefore, it was hypothesized that a change in orientation or tetrahedral angle might increase the affinity of the peptide for p53. Six new peptides were synthesized replacing this proline residue with proline analogs (pCAPs 708-712, and pCAP-716, SEQ ID NOS: 6-10 and 14, respectively). This set of peptides was tested for activity on a panel of cell lines expressing mutp53, and compared it to pCAP-674 (SEQ ID NO: 27) and to the scrambled sequence peptides pCAP-721 (SEQ ID NO: 19) and pCAP-722 (SEQ ID NO: 20).

[6] = tested on: RXF-393 (renal carcinoma) cells, p53R175H; assay type: cell-based, human
Method: as §1, §3
Fatty acid position. Lead peptides were modified with N-terminal myristic acid to enable the penetration of peptides across the cell membrane. Although myristic acid is usually the default choice for cell permeability, additional options were explored of longer fatty acids and to examine the effect on peptide efficacy in terms of cancer cell killing. A standard crystal violet viability test was performed on human renal carcinoma RXF-393 cells, comparing the original pCAP-553, which has myristic acid (C14), with 4 derivative peptides modified with longer fatty acid chains: palmitic (C16), stearic (C18), […] (C20) and behenic (C22).

[7] = tested on: PC9 (lung carcinoma) cells, p53R248Q; assay type: cell-based
Method: as §1, §2

Compound	IC50 ([2]; 48 h) [nM]	IC50 ([3]; 48 h) [nM]	IC50 ([4]; 48 h) [nM]	IC50 ([6]; 48 h) [nM]	IC50 ([7]; 48 h) [nM]	IC50 ([1]; 48 h) [nM]	activity in viability assays compared with other peptides (in words) [5]	further results
CCCCCCCCCCCCCCCCCC(=O)N[C@@H](CCCNC(=N)N)C(=O)N[C@@H](CCCNC(=N)N)C(=O)N[C@@H](Cc1c[nH]cn1)C(=O)N[C@@H](CO)C(=O)N[C@@H](C(=O)N1Cc2ccccc2C[C@H]1C(=O)N[C@@H](CCN)C(=O)N1CCC[C@H]1C(=O)N[C@@H](CC(=O)O)C(N)=O)C(C)C [pCAP-712, str-RRHSv(Tic)(Dab)PD-NH2] (Stearoyl-RRHS[dV][Tic][Dab]PD-NH2)	1000	–	1500	600	1200	–	highest activity	–
CCCCCCCCCCCCCCCCCC(=O)N[C@@H](CCCNC(=N)N)C(=O)N[C@@H](CCCNC(=N)N)C(=O)N[C@@H](Cc1c[nH]cn1)C(=O)N[C@@H](CO)C(=O)N[C@@H](C(=O)N1CCC[C@@H]1C(=O)N[C@@H](CCN)C(=O)N1CCC[C@H]1C(=O)N[C@@H](CC(=O)O)C(N)=O)C(C)C [pCAP-708, str-RRHSvp(Dab)PD-NH2] (Stearoyl-RRHS[dV][dP][Dab]PD-NH2)	500	–	–	–	–	32000	consistently modestly improved activity over pCAP-674	IC50 [5]: 120 to 1300 nM; activity in viability assays compared with other peptides (in words) ([5]; listed as 708): highest activity
CCCCCCCCCCCCCC(=O)N[C@@H](CCCNC(=N)N)C(=O)N[C@@H](CCCNC(=N)N)C(=O)N[C@@H](Cc1c[nH]cn1)C(=O)N[C@@H](CO)C(=O)N[C@H](C(=O)N1CCC[C@H]1C(=O)N[C@@H](Cc1c[nH]cn1)C(=O)N1CCC[C@H]1C(=O)N[C@@H](CC(=O)O)C(=O)O)[C@@H](C)O [pCAP-250, myr-RRHSTPHPD]	1000	–	–	–	–	> 40000	–	–
str-RRHSv(Dmp)(Dab)PD-NH2 (Stearoyl-RRHS[dV][Dmp][Dab]PD-NH2) [pCAP-716, Dmp—Di-methyl proline]	–	–	–	–	–	–	consistently modestly improved activity over pCAP-674	activity in viability assays compared with other peptides (in words) ([5]; listed as 716): highest activity; IC50 ([6]; FIG. 19, read-out: RXF IC50): 420 nM; IC50 ([6]; FIG. 20, read-out: RXF 393 IC50): 300 nM; IC50 ([1]; FIG. 19, read-out: WI38 IC50): 33000 nM; IC50 ([7]; FIG. 19, read-out: PC9 IC50): 630 nM; IC50 ([7]; FIG. 20, read-out: PC9 IC50): 700 nM; IC50 ([2]; FIG. 20, read-out: MIAPaca IC50): 300 nM; IC50 ([3]; FIG. 19, read-out: PANCI IC50): 2000 nM; IC50 ([4]; FIG. 20, read-out: SW-480 IC50): 1000 nM
CCCCCCCCCCCCCCCCCC(=O)N[C@@H](CCCNC(=N)N)C(=O)N[C@@H](CCCNC(=N)N)C(=O)N[C@@H](Cc1c[nH]cn1)C(=O)N[C@@H](CO)C(=O)N[C@H]1CCCCNC(=O)[C@H](CC(=O)O)NC(=O)[C@@H]2CCCN2C(=O)[C@H](CCN)NC(=O)[C@@H]2CCCN2C1=O [pCAP-713, str-RRHSKP(Dab)PD-Cyc] (Stearoyl-RRHSKP[Dab]PD; lactam 5-C)	300	1050	–	–	–	–	highest activity	IC50 [5]: 100 to 1000 nM; increase in activity over pCAP-674 ([5]; FIGS. 18-20): 1.5-3 folds; increase in activity over the original pCAP-553 ([5]; FIGS. 18-20): 4-10 folds

The next lines start with results.

IC50 ([2]; 48 h) [nM]	IC50 ([3]; 48 h) [nM]	IC50 ([4]; 48 h) [nM]	IC50 ([6]; 48 h) [nM]	IC50 ([7]; 48 h) [nM]	Compound	IC50 ([1]; 48 h) [nM]	activity in viability assays compared with other peptides (in words) [5]	further results
> 30000	> 40000	> 30000	–	–	CCCCCCCCCCCCCCCCCC(=O)N[C@@H](CC(=O)O)C(=O)N1CCC[C@H]1C(=O)N[C@@H](Cc1c[nH]cn1)C(=O)N[C@H]1CCCCNC(=O)[C@H](CCCNC(=N)N)NC(=O)[C@H](CCN)NC(=O)[C@H](CCCNC(=N)N)NC(=O)[C@@H]2CCCN2C(=O)[C@H](CO)NC1=O [pCAP-725, str-DPHKSPR(Dab)R-Cyc, reference compound] (Stearoyl-DPHKSPR[Dab]R; lactam 4-C)	> 40000	–	–
300	2150	1200	–	–	CCCCCCCCCCCCCCCCCC(=O)N[C@@H](CCCNC(=N)N)C(=O)N[C@@H](CCCNC(=N)N)C(=O)N[C@@H](Cc1c[nH]cn1)C(=O)N[C@@H](CO)C(=O)N[C@@H](C(=O)N1CCC[C@H]1C(=O)N[C@@H](CCN)C(=O)N1CCC[C@H]1C(=O)N[C@@H](CC(=O)O)C(N)=O)C(C)C [pCAP-717, str-RRHSvP(Dab)PD-NH2] (Stearoyl-RRHS[dV]P[Dab]PD-NH2)	35000	–	–
300	–	1200	300	800	CCCCCCCCCCCCCCCCCC(=O)N[C@@H](CCCNC(=N)N)C(=O)N[C@@H](CCCNC(=N)N)C(=O)N[C@@H](Cc1c[nH]cn1)C(=O)N[C@@H](CO)C(=O)N[C@@H](C(=O)N1CCC[C@@H]1C(=O)N[C@@H](CCN)C(=O)N1CCC[C@H]1C(=O)N[C@H](CC(=O)O)C(=O)NCC(=O)N[C@@H](CCCNC(=N)N)C(=O)O)C(C)C [pCAP-721, str-RRHSvp(Dab)PdGR] (Stearoyl-RRHS[dV][dP][Dab]P[dD]GR-OH; C-terminus assumed)	–	comparable activity to pCAP-717	–
–	2180	–	460	570	CCCCCCCCCCCCCCCCCC(=O)N[C@@H](CCCNC(=N)N)C(=O)N[C@@H](CCCNC(=N)N)C(=O)N[C@@H](Cc1c[nH]cn1)C(=O)N[C@@H](CO)C(=O)N[C@H](CCCCN)C(=O)N1Cc2ccccc2C[C@@H]1C(=O)N[C@@H](CCN)C(=O)N1CCC[C@H]1C(=O)N[C@@H](CC(=O)O)C(N)=O [pCAP-719, str-RRHSk(tic)(Dab)PD-NH2] (Stearoyl-RRHS[dK][dTic][Dab]PD-NH2)	29000	–	–
300	1240	1200	–	–	CCCCCCCCCCCCCCCCCC(=O)N[C@@H](CCCNC(=N)N)C(=O)N[C@@H](CCCNC(=N)N)C(=O)N[C@@H](Cc1c[nH]cn1)C(=O)N[C@@H](CO)C(=O)N[C@@H](C(=O)N1CCC[C@@H]1C(=O)N[C@@H](CCN)C(=O)N1CCC[C@H]1C(=O)N[C@@H](CC(=O)O)C(=O)NCC(=O)N[C@@H](CCC(=O)O)C(=O)N[C@@H](C)C(=O)O)C(C)C [pCAP-720, str-RRHSvp(Dab)PDGEA] (Stearoyl-RRHS[dV][dP][Dab]PDGEA-OH; C-terminus assumed)	32000	comparable activity to pCAP-717	–
–	> 40000	–	> 40000	> 40000	CCCCCCCCCCCCCCCCCC(=O)N[C@@H](CCCNC(=N)N)C(=O)N[C@@H](CC(=O)O)C(=O)N1CCC[C@H]1C(=O)N[C@@H](Cc1c[nH]cn1)C(=O)N[C@@H](C(=O)N[C@@H](CO)C(=O)N1CCC[C@H]1C(=O)N[C@@H](CCCNC(=N)N)C(=O)N[C@@H](CCN)C(N)=O)C(C)C [pCAP-723, str-RDPHvSPR(Dab)-NH2, reference compound] (Stearoyl-RDPH[dV]SPR[Dab]-NH2)	> 40000	–	–

Reference: patent US20230127559A1, “PEPTIDE ANALOGS AND USE OF SAME IN TREATING DISEASES, DISORDERS OR CONDITIONS ASSOCIATED WITH MUTANT P53 PROTEIN” (YEDA RESEARCH AND DEVELOPMENT CO. LTD., priority 2020, published 2023)
